Reference: patent US11945875B2, “Motile sperm domain containing protein 2 and cancer” (ImmuneWalk Therapeutics, Inc., priority 2015, dated 2024)
“Also recorded” adds a separate entry of the source.

Legend:
TLR2 = biological target: T1, TLR2 (Homo sapiens, UniProt O60603); test: Precipitation of proteins from human CD14 monocyte lysate with labelled VB-201 or VB-221, Western blot; format: binding; conditions: ovalbumin-biotin labelled compound (OB201/OB221)
T1 construct: endogenous in cells; host or cells: human CD14 monocytes
T1 sequence (O60603 21-784): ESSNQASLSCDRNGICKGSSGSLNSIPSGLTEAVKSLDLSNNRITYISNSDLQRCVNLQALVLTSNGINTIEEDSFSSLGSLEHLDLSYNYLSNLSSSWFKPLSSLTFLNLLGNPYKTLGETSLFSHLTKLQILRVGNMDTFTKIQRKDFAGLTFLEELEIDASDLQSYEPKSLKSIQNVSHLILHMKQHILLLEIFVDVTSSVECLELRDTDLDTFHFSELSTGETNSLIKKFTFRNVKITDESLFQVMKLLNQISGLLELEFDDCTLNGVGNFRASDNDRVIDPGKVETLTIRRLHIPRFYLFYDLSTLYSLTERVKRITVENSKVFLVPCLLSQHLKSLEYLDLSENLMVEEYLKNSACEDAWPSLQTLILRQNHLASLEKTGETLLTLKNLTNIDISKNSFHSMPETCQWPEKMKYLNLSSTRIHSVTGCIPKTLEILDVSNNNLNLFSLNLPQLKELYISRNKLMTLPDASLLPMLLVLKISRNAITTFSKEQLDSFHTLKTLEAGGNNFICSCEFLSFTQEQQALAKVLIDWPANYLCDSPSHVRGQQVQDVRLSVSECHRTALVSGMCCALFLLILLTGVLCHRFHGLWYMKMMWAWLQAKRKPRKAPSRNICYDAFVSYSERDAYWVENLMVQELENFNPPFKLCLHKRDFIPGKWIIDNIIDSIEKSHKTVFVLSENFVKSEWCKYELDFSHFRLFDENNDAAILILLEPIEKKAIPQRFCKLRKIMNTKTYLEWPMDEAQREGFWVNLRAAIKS
Description: (§1) VB-201 and VB-221 were labeled with biotin as follows. VB-201, VB-221 and ovalbumin (OVA, Sigma, Israel) were dissolved in 0.1 M MES buffer (Thermo Scientific, Rockford, IL) and conjugated using EDC [1-ethyl-3-(dimethylaminopropyl) carbodiimide HCL] (Thermo Scientific) at a molar ratio of 100 (VB-201/VB-221):1 (OVA):240 (EDC) for 2-3 hr at room temperature. After which, samples were transferred to 10 kDa dialysis cassettes (Thermo Scientific) and dialyzed overnight against PBS. The ovalbumin bound VB-201 (OB201) and VB-221 (OB221) were then conjugated with amine-PEG2-biotin (in 0.1 M MES buffer) using EDC at a molar ratio of 1 (OB201/OB221):100 (amine-PEG2-biotin):700 (EDC). The reaction was allowed to proceed for 2-3 hours at room temperature after which samples were again transferred to a 10 kDa dialysis cassette and dialyzed overnight against PBS.
(§2) Cells were lysed using a 1% NP-40 lysis buffer containing 1:100 protease and phosphatase inhibitors, followed by 20 min incubation on ice and 15 min centrifugation at maximum speed. Samples were incubated overnight at 4° C. with solvent, OB201 or OB221 in a rotator. Streptavidin agarose beads (Sigma, Israel) were added for 2 hours. Protein elution was performed with lysis buffer without DTT for 10 min at room temperature. Sample loading, transfer and immuno-blotting were performed as described above. […]

human monocytes = conditions: cited from earlier work
MOSPD2 [1] = biological target: T2, MOSPD2 (Homo sapiens, UniProt Q8NHP6); test: Mass-Spectrometry differential display of proteins precipitated from human monocytes; format: binding; parameters: endogenous in cells; host or cells: human CD14 monocytes; conditions: labeled compound
T2 sequence (Q8NHP6 1-518): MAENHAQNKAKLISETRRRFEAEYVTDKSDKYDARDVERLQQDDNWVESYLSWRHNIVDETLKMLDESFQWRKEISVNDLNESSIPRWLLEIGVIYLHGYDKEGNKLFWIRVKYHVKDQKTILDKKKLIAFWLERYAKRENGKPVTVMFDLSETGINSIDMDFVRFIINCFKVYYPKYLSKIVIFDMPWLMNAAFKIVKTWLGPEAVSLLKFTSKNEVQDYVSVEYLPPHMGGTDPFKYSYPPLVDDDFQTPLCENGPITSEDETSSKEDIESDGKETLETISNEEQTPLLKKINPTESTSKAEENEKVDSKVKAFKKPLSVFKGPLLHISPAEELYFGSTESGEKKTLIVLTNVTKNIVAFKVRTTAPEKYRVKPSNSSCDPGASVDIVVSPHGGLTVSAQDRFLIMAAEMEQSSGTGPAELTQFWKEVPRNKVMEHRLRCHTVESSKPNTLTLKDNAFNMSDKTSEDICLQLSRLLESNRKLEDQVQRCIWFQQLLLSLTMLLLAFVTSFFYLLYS
Source text: Using labeled VB-201 and VB-221, proteins from human monocytes were precipitated and differential display by Mass-Spectrometry, was studied.

[2] = system: EGF induced phosphorylation of AKT; test: EGF-induced phosphorylation of AKT in MDA-231 cells, Western blot; format: cell-based, human; conditions: 20 min pre-incubation, EGF 200 ng/ml 10 min
Description: In vitro: To test the effect of VB-201 on epidermal growth factor (EGF)-induced phosphorylation, MDA-231 breast cancer cells (10^6) were starved for 3 hours in 0.5% FCS medium, followed by incubation with various concentrations of VB-201 (1 μg/ml, 5 μg/ml, and 10 μg/ml) or a solvent control for 20 minutes. The MDA-231 cells were then activated with EGF (200 ng/ml) for 10 min. Phosphorylation of AKT was then analyzed by Western Blot. HSP90 was used for a loading control.

MOSPD2 [3] = biological target: T2, MOSPD2; test: Precipitation of proteins from human CD14 monocyte lysate with labelled VB-201 or VB-221, Western blot; format: binding; parameters: endogenous in cells; host or cells: human CD14 monocytes; conditions: ovalbumin-biotin labelled compound (OB201/OB221)
Description: as §1, §2

MOSPD2 [4] = biological target: T2, MOSPD2; test: Binding to HEK293 cells transfected with HA-tagged human MOSPD2; parameters: expressed in transfected cells; host or cells: HEK293; conditions: ovalbumin labeled compound
Source text: VB-201 inhibits human monocyte chemotaxis in vitro and signaling pathways activated downstream of chemokine receptors.

SMILES | precipitation of TLR2 (TLR2) | inhibition of monocyte chemotaxis / chemokine-induced signaling and migration (human monocytes) | binding of MOSPD2 by Mass-Spectrometry (MOSPD2 [1]) | inhibition of EGF induced phosphorylation of AKT ([2]; 5 μg/ml) | inhibition of EGF induced phosphorylation of AKT ([2]; 10 μg/ml) | binding / precipitation of MOSPD2 (MOSPD2 [3]) | binding to HA-positive HEK293 cells expressing human MOSPD2 (MOSPD2 [4])
CCCCCCCCCCC(CCCCCCCC)COCC(COP(=O)([O-])OCC[N+](C)(C)C)OCCCCC(=O)O (stereo not drawn) [VB-221, 1-(2′-octyl)dodecyl-2-(4′-carboxy)butyl-glycero-3-phosphocholine] | comparable intensity | does not inhibit; also recorded: did not inhibit |  |  |  |  | 
CCCCCCCCCCCCCCCCOC[C@H](COP(=O)([O-])OCC[N+](C)(C)C)OCCCCC(=O)O [VB-201, 1-hexadecyl-2-(4′-carboxy)butyl-glycero-3-phosphocholine] | comparable intensity | inhibits migration | strong binding | significant inhibition | nearly completely inhibits | binds and precipitates MOSPD2; also recorded: markedly more intense than VB-221; also recorded: binds to MOSPD2 | strong binding
